# Literature values in patent US20250312496A1, “PROSTATE SPECIFIC MEMBRANE ANTIGEN (PSMA) LIGANDS” (Deutsches Krebsforschungszentrum Stiftung des öffentlichen …, priority 2022, published 2025).
# System: prostate cancer
structure (smiles),measurement,setting,value
"O=C(O)CC[C@H](NC(=O)N[C@@H](CCCCNC(=O)[C@H](Cc1ccc2ccccc2c1)NC(=O)[C@H]1CC[C@H](CNC(=O)CN2CCN(CC(=O)O)CCN(CC(=O)O)CCN(CC(=O)O)CC2)CC1)C(=O)O)C(=O)O [225Ac-PSMA-617, metal not drawn]",PSA value,both patients,fell below the detectability limit
same,response of patients,two patients with extremely advanced and end-stage disease,complete remission
